# Experimental data: patent US20190169218A1, “AMPHIPATHIC COMPOUND HAVING NOVEL PENTA-SACCHARIDE HYDROPHILIC GROUP AND USE THEREOF” (Industry-University Cooperation Foundation Hanyang …, priority 2016, published 2019)
# Legend:
# [1] = critical micelle concentration (CMC) by hydrophobic fluorescent staining with diphenylhexatriene (DPH); assay type: physicochemical
# How it was run: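 CMC determined by hydrophobic fluorescent staining with diphenylhexatriene (DPH); micelle hydrodynamic radius measured separately by dynamic light scattering at 1.0 wt %, with DDM as reference detergent.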
# [2] = molecular target: T1, human β2 adrenergic receptor (β2AR) (Homo sapiens, UniProt P07550); assay: β2AR activity by [3H]-dihydroalprenolol radioactive ligand binding assay; assay type: biochemical; conditions: for long-term β2AR activity ([3H]-DHA binding): 3 or 5 days at room temperature
# T1 construct: Flag; made in house
# T1 sequence (P07550 whole entry): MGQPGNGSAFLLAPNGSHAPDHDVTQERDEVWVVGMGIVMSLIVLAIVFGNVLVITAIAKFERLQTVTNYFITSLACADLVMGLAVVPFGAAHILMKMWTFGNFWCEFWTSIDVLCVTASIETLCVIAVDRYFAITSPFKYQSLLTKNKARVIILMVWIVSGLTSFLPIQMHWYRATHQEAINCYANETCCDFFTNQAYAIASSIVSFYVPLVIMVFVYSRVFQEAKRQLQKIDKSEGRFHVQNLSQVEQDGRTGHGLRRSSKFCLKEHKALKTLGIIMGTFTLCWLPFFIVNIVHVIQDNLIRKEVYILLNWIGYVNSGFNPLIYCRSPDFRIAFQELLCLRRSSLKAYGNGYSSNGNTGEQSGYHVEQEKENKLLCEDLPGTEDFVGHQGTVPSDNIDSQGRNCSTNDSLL
# Protocol: The membrane protein stabilizing ability of receptors (mBBr-β2ARs) solubilized in PSAs or PSEs was evaluated by measuring the binding activity of the receptors to [^3H]-dihydroalprenolol ([^3H]-DHA).
# Specifically, radioactive ligand binding assay was performed as follows. β2ARs purified with 0.1 wt % DDM was concentrated to about 10 mg/mL (approximately 200 μM). β2ARs purified with DDM were used to prepare a master binding mixture containing 10 nM [^3H]-dihydroalprenolol (DHA), which was dissolved in 0.2 wt % of DDM, PSA or PSE and supplemented with 0.5 mg/mL BSA. At a concentration of 0.2 pmol, the activity of the receptors purified with the amphipathic compounds was monitored at regular intervals over a 4-day incubation period. Protein samples were incubated on ice for 2 days and then at room temperature for 2 days. Receptor activity was measured by binding assay for dissolved radioactive ligands. The receptors purified with DDM or a novel formulation (PSA-C11, PSE-C11 or PSE-C13) were incubated with 10 nM [^3H]-DHA at room temperature for 30 minutes. The mixture was loaded onto a G-50 column, a solution passed through the column was collected in 1 mL of a binding buffer (100 mM NaCl and 20 mM HEPES (pH 7.5) supplemented with 0.5 mg/mL BSA and 20×CMC amphipathic compounds), and 15 mL of a scintillation fluid was added to the solution. Receptor-bound [^3H]-DHA was measured using a scintillation counter (Beckman). Non-specific binding of [^3H]-DHA was measured by adding 1 μM alprenolol (Sigma) to the same reaction mixture. The binding degree of the receptors to [^3H]-DHA was represented by a column graph.
# The ability of TPSs (TPS-As, TPS-Es and TPS-ELs) to stabilize the structures of human β2 adrenergic receptors (β2ARs) and G protein-coupled receptors (GPCRs) was measured. That is, DDM-purified receptors were diluted with a buffer solution containing only each of the TPSs without cholesteryl hemisuccinate (CHS) or a buffer solution containing CHS and DDM. The final concentration of the compounds was CMC+0.2wt %, and the binding activity of the receptors to ligands was evaluated by measuring the degree of binding of the receptors to [^3H]-dihydroalprenolol ([^3H]-DHA).
# Specifically, radioactive ligand binding assay was performed as follows. β2ARs were purified with 0.1 wt % DDM (D. M. Rosenbaum et al., Science, 2007, 318, 1266-1273.) and was concentrated to about 10 mg/mL (approximately 200 μM). β2ARs purified with DDM were used to prepare a master binding mixture containing 10 nM [^3H]-dihydroalprenolol (DHA), which was dissolved in 0.2% amphipathic compounds (DDM or TPSs) and supplemented with 0.5 mg/mL BSA. The activity of the receptors purified with the amphipathic compounds was monitored at regular intervals over a 3- to 5-day incubation period. The receptors purified with DDM or TPSs were incubated with 10 nM [^3H]-DHA at room temperature for 30 minutes. The mixture was loaded onto a G-50 column, a solution passed through the column was collected in 1 mL of a binding buffer (100 mM NaCl and 20 mM HEPES (pH 7.5) supplemented with 0.5 mg/mL BSA and 20×CMC of each amphipathic compound), and 15 mL of a scintillation fluid was added to the solution. Receptor-bound [^3H]-DHA was measured using a scintillation counter (Beckman). The binding degree of the receptors to [^3H]-DHA was represented by a column graph.
# [3] = first two days of incubation at 0° C.
Compound,CMC [1] [mM],CMC (wt %) [1] [wt %],long-term β2AR activity ([3H]-DHA binding) [2],"β2AR activity ([3H]-DHA binding) during incubation [2, 3]","initial β2AR activity ([3H]-DHA binding) ([2]; 0.2 wt % DDM, PSA or PSE)",β2AR activity ([3H]-DHA binding) during incubation ([2]; incubation at room temperature (days 3-4)),"initial β2AR activity ([3H]-DHA binding) ([2]; TPSs at CMC+0.2wt %, without CHS)"
"CCCCCCCCCCCCO[C@@H]1O[C@H](CO)[C@@H](O[C@H]2O[C@H](CO)[C@@H](O)[C@H](O)[C@H]2O)[C@H](O)[C@H]1O [DDM, n-dodecyl-β-D-maltopyranoside, reference compound]",~0.17,~0.0087,the activity was rapidly lost over time,well maintained the initial activity thereof,–,–,–
CCCCCCCCCCCOCC(COCCCCCCCCCCC)O[C@@H]1OC(CO[C@@H]2OC(CO)[C@@H](O)C(O)C2O)[C@@H](O[C@@H]2OC(CO)[C@@H](O)C(O)C2O)C(O[C@@H]2OC(CO)[C@@H](O)C(O)C2O)C1O[C@@H]1OC(CO)[C@@H](O)C(O)C1O (some centres unmarked) [PSE-C11],~0.004,~0.0005,–,well maintained the initial activity thereof,higher initial activity than proteins solubilized in DDM,the best,–
CCCCCCCCOCC(COCCCCCCCC)(COCCCCCCCC)CO[C@@H]1OC(CO[C@@H]2OC(CO)[C@@H](O)C(O)C2O)[C@@H](O[C@@H]2OC(CO)[C@@H](O)C(O)C2O)C(O[C@@H]2OC(CO)[C@@H](O)C(O)C2O)C1O[C@@H]1OC(CO)[C@@H](O)C(O)C1O (some centres unmarked) [TPS-E8],~0.007,~0.0009,significantly better than that of DDM,–,–,–,the most excellent
CCCCCCCCCCCCCOCC(COCCCCCCCCCCCCC)O[C@@H]1OC(CO[C@@H]2OC(CO)[C@@H](O)C(O)C2O)[C@@H](O[C@@H]2OC(CO)[C@@H](O)C(O)C2O)C(O[C@@H]2OC(CO)[C@@H](O)C(O)C2O)C1O[C@@H]1OC(CO)[C@@H](O)C(O)C1O (some centres unmarked) [PSE-C13],~0.001,~0.0001,–,well maintained the initial activity thereof,higher initial activity than proteins solubilized in DDM,–,–
CCCCCCCCCCCC(CCCCCCCCCCC)CO[C@@H]1OC(CO[C@@H]2OC(CO)[C@@H](O)C(O)C2O)[C@@H](O[C@@H]2OC(CO)[C@@H](O)C(O)C2O)C(O[C@@H]2OC(CO)[C@@H](O)C(O)C2O)C1O[C@@H]1OC(CO)[C@@H](O)C(O)C1O (some centres unmarked) [PSA-C11],~0.007,~0.0008,–,well maintained the initial activity thereof,–,–,–
